The test system of test [1] is metastatic prostate cancer. The experiment in a line: Response to therapy in metastatic androgen-independent prostate cancer patients (reduction in PSA levels). Type of test: in vivo, human. The text has this:
Thus, disclosed herein is a method of expression profiling of gene of interest in CTCs using real time quantitative RT-PCR. Briefly, in a proof of concept, in total RNA isolated from circulating tumor cells of each of 40 metastatic prostate cancer patients gene expression profiles of 14 candidate genes were investigated by real time quantitative RT-PCR. […] Based on this application of RT-PCR based detection of the TMPRSS2-ERG fusion gene expression, patients are stratified for effective treatment with docetaxel chemotherapy, with an overall improvement in disease outcome and quality of life with very high specificity.
Briefly, the 40 subjects were recruited from the Cedars-Sinai Medical Center in Los Angeles. Appropriate IRB approvals were obtained prior to patient sample collection. The inclusion criteria consisted of: patient must be at least 18 years old and with clinical diagnosis of Stage IV (metastatic) prostate cancer; patients must provide written consent/authorization to participate in this study, no signs or symptoms of active infection, willing and able to comply with procedures required in this protocol.
All patients were receiving treatments at Cedars-Sinai Medical Center at Los Angeles and all have metastatic prostate cancers. […]

In test [2] the test system is castration resistant prostate cancer (CRPC). The experiment in a line: CEC, CTC, ET-1 and TF levels during docetaxel treatment of CRPC patients. Type of test: in vivo, human. The method, then:
Blood samples were collected from 231 patients with CRPC by venesection into 2×10 mL CellSave tubes (Veridex, LLC, Raritan, N.J.) and 1×6 mL serum tube in a multi-center prospective study. One CellSave tube was used to determine the number of CTC for prediction of OS. Results on CTC levels measured in this group have been previously published. The second collected CellSave tube was used to determine CEC numbers.
In order to assess a homogenous group of patients with respect to systemic therapy, we selected all who were scheduled to receive docetaxel or a docetaxel containing regimen (n=162) from the 231 patients. Treatment was continued until progression or unacceptable toxicity. Main eligibility criteria included age ≧18 years, pathological diagnosis of adenocarcinoma of the prostate, first or later line of chemotherapy, serum testosterone <1.7 nmol/L ([…]), Eastern Cooperative Oncology Group (ECOG) performance status 0-2, pretreatment serum PSA≧5 ng/mL, PSA progression (rises above a reference value) despite androgen deprivation therapy, and ability to sign informed consent. This study was approved by the local Institutional Medical Ethical Review Boards and is in agreement with the Helsinki declaration of 2000. Written informed consent was obtained from all patients prior to participation.
CEC and CTC counts were determined prior to initiation of chemotherapy and after 2-5 weeks (first follow-up draw) and 6-8 weeks (second follow-up draw) of treatment. Serum concentrations of ET-1 and TF were also determined at these same time points.
The CellTracks® AutoPrep® and CellTracks Analyzer II® Systems (both Veridex, LLC, Raritan, N.J.) were used to count CTC and CEC. CTC were defined as intact cells positive for the nuclear stain 4′ 6-diamidinophenylindole (DAPI), the epithelial cell adhesion molecule (EpCAM), and for cytokeratins 8, 18 and 19 that also lacked expression of the panleukocyte marker CD45. CEC were identified as intact cells positive for DAPI, CD146 and CD105 that also lacked expression of CD45.
The technical details of both assays have been published previously. […]
Serum concentrations (pg/mL) of ET-1 and TF-1 were determined by ELISA. […] Absorbance was read at 450 nm using a Titertek 212 MS microplate reader (Titertek, Huntsville, Ala.). […]
Longitudinal biomarker data were analyzed using a random effects linear regression model using the maximum likelihood random effects estimator (the “xtreg, mle” command in STATA). […] To determine a cutoff value for survival analysis of CEC numbers and serum concentrations of ET-1 and TF, patient data were first stratified according percentiles (p0-p25; p25-p50, p50-p75, and p75-p100), in which either their baseline value or the change between baseline values and those determined at 2-5 weeks would fall. […]

From patent US20110166030A1, “Prediction of response to docetaxel therapy based on the presence of TMPRSSG2:ERG fusion in circulating tumor cells” (priority 2009, published 2011) come the findings set out here.

For `CC(=O)O[C@@]12CO[C@@H]1C[C@H](O)[C@@]1(C)C(=O)[C@H](O)C3=C(C)[C@@H](OC(=O)[C@H](O)[C@@H](NC(=O)OC(C)(C)C)c4ccccc4)C[C@@](O)([C@@H](OC(=O)c4ccccc4)[C@H]21)C3(C)C` [Docetaxel], the “Response to treatment, Number of Patients” value in test [1] (40 metastatic prostate cancer patients, Tax 14 patients, Tax + RAD 11 patients treated) is 7. Further, in test [1] (five fusion-positive patients received Docetaxel-based therapy (Docetaxel or Docetaxel plus RAD001)), the “Patients with T1E4 or T2E4 fusion gene expression in CTCs who responded to the therapy” value is 5 patients. Also, the “Change in CTC numbers” value in test [2] (after 2-5 weeks of treatment, cells/7.5 mL blood) was “decreased significantly”. The “Change in serum TF” value in test [2] (after 6-8 weeks of therapy vs baseline and first follow-up draw, ELISA) is reported as “significant decrease”. For the same compound, the “Serum concentrations of ET-1 during treatment” value in test [2] (baseline, 2-5 and 6-8 weeks, ELISA) is “remained constant”. The “Change in CEC numbers vs baseline” value in test [2] (first follow-up draw, 2-5 weeks after initiation of docetaxel, cells/4.0 mL blood) is given as “significant increase”.
